Read-outs that look alike come from different tables or passages of the source.
Key:
Phospho-Axl = Phospho-Axl (Homo sapiens (Human), UniProt P30530); assay: biochemical;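 further: test system is recombinant Axl protein that was first autophosphorylated with ATP and MgCl2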
Experimental: Autophosphorylation of Axl was carried out by incubating the recombinant Axl protein (Life Technologies, PV4275) in buffer containing 50 mM Tris, pH7.5, 0.2 mg/ml Axl, 5 mM ATP, 20 mM MgCl2 and 2 mM DTT at room temperature for 1 hour.
(§1) 0.1 ul test compounds dissolved in DMSO were transferred from compound plates to white 384-well assay plates (Greiner [sequence] plates). […] The plate was protected from light and incubated at room temperature for 60 min.

c-Mer = c-Mer (Homo sapiens (Human), UniProt Q12866); conditions: read-out: c-Mer IC50; HTRF, 60 min room temperature
Experimental: as §1

Tyro3 = Tyro3 (Homo sapiens (Human), UniProt Q06418); assay: biochemical; conditions: read-out: Tyro3IC50
Tyro3, sequence (Q06418 41-890): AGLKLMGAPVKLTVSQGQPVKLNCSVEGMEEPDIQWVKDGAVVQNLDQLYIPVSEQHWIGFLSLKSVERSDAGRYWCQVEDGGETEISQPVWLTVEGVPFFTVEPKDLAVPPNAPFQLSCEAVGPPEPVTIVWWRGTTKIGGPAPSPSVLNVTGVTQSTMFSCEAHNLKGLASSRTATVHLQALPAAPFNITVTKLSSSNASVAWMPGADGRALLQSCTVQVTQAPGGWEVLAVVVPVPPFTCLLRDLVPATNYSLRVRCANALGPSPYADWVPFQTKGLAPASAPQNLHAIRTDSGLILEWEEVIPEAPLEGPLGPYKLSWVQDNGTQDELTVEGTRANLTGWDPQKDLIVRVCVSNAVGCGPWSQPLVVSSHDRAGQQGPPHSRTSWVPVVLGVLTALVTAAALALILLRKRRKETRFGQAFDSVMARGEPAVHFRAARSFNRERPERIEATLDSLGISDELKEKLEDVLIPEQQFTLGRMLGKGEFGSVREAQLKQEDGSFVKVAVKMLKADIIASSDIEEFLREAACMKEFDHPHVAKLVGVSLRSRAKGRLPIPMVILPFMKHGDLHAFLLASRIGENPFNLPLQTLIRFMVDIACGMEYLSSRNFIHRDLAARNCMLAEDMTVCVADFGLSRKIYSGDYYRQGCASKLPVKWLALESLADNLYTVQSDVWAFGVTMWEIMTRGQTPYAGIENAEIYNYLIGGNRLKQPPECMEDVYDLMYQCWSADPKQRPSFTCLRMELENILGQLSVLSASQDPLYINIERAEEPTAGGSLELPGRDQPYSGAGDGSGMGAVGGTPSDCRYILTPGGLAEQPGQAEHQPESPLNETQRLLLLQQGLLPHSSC
Experimental: as §1

Phospho-Axl, sequence (P30530 26-894): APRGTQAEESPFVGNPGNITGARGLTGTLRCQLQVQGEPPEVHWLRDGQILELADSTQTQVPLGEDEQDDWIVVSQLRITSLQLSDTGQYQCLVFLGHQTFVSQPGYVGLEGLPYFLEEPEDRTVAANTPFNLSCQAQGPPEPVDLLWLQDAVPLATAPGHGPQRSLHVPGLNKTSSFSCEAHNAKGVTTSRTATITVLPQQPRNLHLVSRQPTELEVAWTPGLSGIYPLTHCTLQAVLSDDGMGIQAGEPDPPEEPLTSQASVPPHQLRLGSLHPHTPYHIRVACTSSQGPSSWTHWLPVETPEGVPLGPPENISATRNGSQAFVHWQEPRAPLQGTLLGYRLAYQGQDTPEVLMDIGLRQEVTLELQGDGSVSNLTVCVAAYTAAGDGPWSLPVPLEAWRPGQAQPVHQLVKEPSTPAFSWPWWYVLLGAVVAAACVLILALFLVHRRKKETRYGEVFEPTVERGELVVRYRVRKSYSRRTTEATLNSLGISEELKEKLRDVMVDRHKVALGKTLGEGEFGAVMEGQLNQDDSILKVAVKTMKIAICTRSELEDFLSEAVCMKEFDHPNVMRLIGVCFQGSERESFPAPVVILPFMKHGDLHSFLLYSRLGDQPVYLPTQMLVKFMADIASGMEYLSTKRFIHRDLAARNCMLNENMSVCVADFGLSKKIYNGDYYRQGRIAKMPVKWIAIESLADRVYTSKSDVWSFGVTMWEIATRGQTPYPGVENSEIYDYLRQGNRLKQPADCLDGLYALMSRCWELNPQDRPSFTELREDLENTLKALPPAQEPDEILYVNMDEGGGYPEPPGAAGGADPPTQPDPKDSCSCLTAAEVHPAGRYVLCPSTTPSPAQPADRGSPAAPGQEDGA
c-Mer, sequence (Q12866 21-999): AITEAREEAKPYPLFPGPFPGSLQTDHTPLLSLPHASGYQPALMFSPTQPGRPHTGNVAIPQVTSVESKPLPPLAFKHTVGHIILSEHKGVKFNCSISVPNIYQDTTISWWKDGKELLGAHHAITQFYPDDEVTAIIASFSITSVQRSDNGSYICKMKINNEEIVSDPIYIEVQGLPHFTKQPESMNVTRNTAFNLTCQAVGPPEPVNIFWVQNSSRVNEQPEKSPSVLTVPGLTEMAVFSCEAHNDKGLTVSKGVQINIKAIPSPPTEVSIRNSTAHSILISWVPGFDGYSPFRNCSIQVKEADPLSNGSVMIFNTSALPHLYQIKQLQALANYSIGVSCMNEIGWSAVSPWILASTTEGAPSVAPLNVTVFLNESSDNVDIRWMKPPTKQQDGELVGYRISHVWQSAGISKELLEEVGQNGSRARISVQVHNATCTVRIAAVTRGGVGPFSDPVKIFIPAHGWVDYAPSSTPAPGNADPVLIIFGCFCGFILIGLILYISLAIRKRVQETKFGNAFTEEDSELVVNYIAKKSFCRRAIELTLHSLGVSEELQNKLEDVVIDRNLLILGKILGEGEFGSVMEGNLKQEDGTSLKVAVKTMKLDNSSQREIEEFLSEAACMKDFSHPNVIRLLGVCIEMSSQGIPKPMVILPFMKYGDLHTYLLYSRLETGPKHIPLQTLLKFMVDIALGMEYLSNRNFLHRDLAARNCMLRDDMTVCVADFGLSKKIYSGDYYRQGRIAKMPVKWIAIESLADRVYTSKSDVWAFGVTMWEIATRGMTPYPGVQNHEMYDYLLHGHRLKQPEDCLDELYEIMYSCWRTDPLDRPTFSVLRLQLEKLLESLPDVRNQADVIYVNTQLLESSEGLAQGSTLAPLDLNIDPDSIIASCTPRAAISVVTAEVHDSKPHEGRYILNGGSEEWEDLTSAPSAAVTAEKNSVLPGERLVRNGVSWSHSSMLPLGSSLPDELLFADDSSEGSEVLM

In the case of `NCC1(c2cccc(-c3nc(NC4CCCC4)nc4[nH]ccc34)c2)Cc2ccccc2C1` [Example 90, 4-{3-[2-(Aminomethyl)-2,3-dihydro-1H-inden-2-yl]phenyl}-N-cyclopentyl-7H-pyrrolo[2,3-d]pyrimidin-2-amine], the IC50 (Phospho-Axl; HTRF, 60 min room temperature) is reported as less than 0.5 µM, the IC50 (c-Mer) is reported as less than 0.5 µM and the IC50 (Tyro3; HTRF, 60 min room temperature) is reported as 0.5 to 1 µM.

In the case of `N#Cc1ccc2c(c1)CC(CN)(c1cccc(-c3ncnc4[nH]ccc34)c1)C2` (stereo not shown) [Example 49, 2-(Aminomethyl)-2-[3-(7H-pyrrolo[2,3-d]pyrimidin-4-yl)phenyl]indane-5-carbonitrile], the IC50 (Phospho-Axl; HTRF, 60 min room temperature) is reported as less than 0.5 µM, the IC50 (c-Mer) is reported as less than 0.5 µM and the IC50 (Tyro3; HTRF, 60 min room temperature) is reported as 1 to 3 µM.

`NCC1(c2cccc(-c3ncnc4[nH]ccc34)c2)Cc2ccc(N3CC(F)C3)cc2C1` (stereo not shown) [Example 56, 1-{5-(3-Fluoroazetidin-1-yl)-2-[3-(7H-pyrrolo[2,3-d]pyrimidin-4-yl)phenyl]-2,3-dihydro-1H-inden-2-yl}methanamine] gave an IC50 (Phospho-Axl; HTRF, 60 min room temperature) of less than 0.5 µM, an IC50 (c-Mer) of less than 0.5 µM and an IC50 (Tyro3; HTRF, 60 min room temperature) of 1 to 3 µM.

In the case of `NCC1(n2cc(-c3ncnc4[nH]ccc34)ccc2=O)Cc2ccccc2C1` [Example 100, 1-[2-(Aminomethyl)-2,3-dihydro-1H-inden-2-yl]-5-(7H-pyrrolo[2,3-d]pyrimidin-4-yl)pyridin-2(1H)-one], the IC50 (Phospho-Axl; HTRF, 60 min room temperature) is reported as less than 0.5 µM and the IC50 (c-Mer) is reported as less than 0.5 µM.

`CCNc1nc(-c2cccc(C3(CN)Cc4ccccc4C3)c2)c2cc[nH]c2n1` [Example 87, 4-{3-[2-(Aminomethyl)-2,3-dihydro-1H-inden-2-yl]phenyl}-N-ethyl-7H-pyrrolo[2,3-d]pyrimidin-2-amine] showed an IC50 (Phospho-Axl; HTRF, 60 min room temperature) of less than 0.5 µM, an IC50 (c-Mer) of less than 0.5 µM and an IC50 (Tyro3; HTRF, 60 min room temperature) of 1 to 3 µM.

Work on `NCC1(c2cccc(-c3ncnc4[nH]ccc34)c2)CCc2ccccc2C1` (stereo not shown) [Example 99, 1-{2-[3-(7H-Pyrrolo[2,3-d]pyrimidin-4-yl)phenyl]-1,2,3,4-tetrahydronaphthalen-2-yl}methanamine] yielded an IC50 (Phospho-Axl) of less than 0.5 µM and an IC50 (c-Mer) of less than 0.5 µM.

In the case of `NCC1(c2cccc(-c3ncnc4[nH]ccc34)c2)Cc2ccc(CN3CCC[C@@H]3C(N)=O)cc2C1` (stereo partly drawn) [Example 43, (2R)-1-((2-(3-(7H-Pyrrolo[2,3-d]pyrimidin-4-yl)phenyl)-2-(aminomethyl)-2,3-dihydro-1H-inden-5-yl)methyl)pyrrolidine-2-carboxamide], the IC50 (Phospho-Axl; HTRF, 60 min room temperature) is reported as greater than 3 µM and the IC50 (Tyro3) is reported as greater than 3 µM.

`CN(C)C1CCN(c2ccc3c(c2)CC(CN)(c2cccc(-c4ncnc5[nH]ccc45)c2)C3)C1` (stereo not shown) [Example 52, 1-{2-(Aminomethyl)-2-[3-(7H-pyrrolo[2,3-d]pyrimidin-4-yl)phenyl]-2,3-dihydro-1H-inden-5-yl}-N,N-dimethylpyrrolidin-3-amine] showed an IC50 (Phospho-Axl; HTRF, 60 min room temperature) greater than 3 µM and an IC50 (Tyro3) greater than 3 µM.

With `CNC1CCN(c2ccc3c(c2)CC(CN)(c2cccc(-c4ncnc5[nH]ccc45)c2)C3)C1` (stereo not shown) [Example 53, 1-{2-(Aminomethyl)-2-[3-(7H-pyrrolo[2,3-d]pyrimidin-4-yl)phenyl]-2,3-dihydro-1H-inden-5-yl}-N-methylpyrrolidin-3-amine] the IC50 (Phospho-Axl; HTRF, 60 min room temperature) was greater than 3 µM and the IC50 (Tyro3) was greater than 3 µM.

In the case of `NCCC1(c2cccc(-c3ncnc4[nH]ccc34)c2)Cc2ccccc2C1` [Example 37, 2-{2-[3-(7H-Pyrrolo[2,3-d]pyrimidin-4-yl)phenyl]-2,3-dihydro-1H-inden-2-yl}ethanamine], the IC50 (Phospho-Axl; HTRF, 60 min room temperature) is reported as less than 0.5 µM and the IC50 (Tyro3) is reported as greater than 3 µM.

`CN(C)c1ccc(-c2ccc3c(c2)CC(CN)(c2cccc(-c4ncnc5[nH]ccc45)c2)C3)cc1` (stereo not shown) [Example 72, 4-{2-(Aminomethyl)-2-[3-(7H-pyrrolo[2,3-d]pyrimidin-4-yl)phenyl]-2,3-dihydro-1H-inden-5-yl}-N,N-dimethylaniline] showed an IC50 (Phospho-Axl; HTRF, 60 min room temperature) of less than 0.5 µM and an IC50 (Tyro3) of less than 0.5 µM.

Compound `NCC1(c2cccc(-c3ncnc4[nH]ccc34)c2)Cc2ccc(-c3ccc(N4CCCC4)nc3)cc2C1` (stereo not shown) [Example 75, 1-{5-(6-Pyrrolidin-1-ylpyridin-3-yl)-2-[3-(7H-pyrrolo[2,3-d]pyrimidin-4-yl)phenyl]-2,3-dihydro-1H-inden-2-yl}methanamine] has an IC50 (Phospho-Axl; HTRF, 60 min room temperature) of less than 0.5 µM and an IC50 (Tyro3) greater than 3 µM.

Source: patent US10053465B2 (Incyte Corporation, priority 2015, dated 2018)
